Results published in US20160002217A1, “FUNGICIDAL 3--OXADIAZOLONE DERIVATIVES” (BAYER CROPSCIENCE AG, priority 2013, published 2016).
Read-outs that look alike come from different tables or passages of the source. Marks after values point to notes of the source that are not given here.

Key:
[1] = Measurement of log P values by HPLC on reversed phase columns (EEC directive 79/831 Annex V.A8); conditions: for chromatographic logP: pH 2.7; for LogP: Table 1, compounds of formula (I), method [a]: LC-MS at pH 2.7, 0.1% formic acid in water / acetonitrile gradient
Phytophthora infestans = type: in vivo; conditions: tomato plants, preventive spray, 500 ppm of active ingredient, evaluated 5 days after inoculation
Plasmopara viticola = test: Plasmopara test (grapevines) / preventive; type: in vivo; conditions: grapevine plants, preventive spray, 10 ppm of active ingredient, evaluated 6 days after inoculation
Protocol: Solvent: 24.5 parts by weight of acetone • 24.5 parts by weight of dimethylacetamide
Emulsifier: 1 part by weight of alkylaryl polyglycol ether
To produce a suitable preparation of active compound, 1 part by weight of active compound is mixed with the stated amounts of solvent and emulsifier, and the concentrate is diluted with water to the desired concentration.
To test for preventive activity, young plants are sprayed with the preparation of active compound at the stated rate of application. After the spray coating has dried on, the plants are inoculated with an aqueous spore suspension of Plasmopara viticola and then remain for 1 day in an incubation cabinet at approximately 20° C. and a relative atmospheric humidity of 100%. The plant is subsequently placed for 4 days in a greenhouse at approximately 21° C. and a relative atmospheric humidity of approximately 90%. The plants are then misted and placed for 1 day in an incubation cabinet.
The test is evaluated 6 days after the inoculation. 0% means an efficacy which corresponds to that of the untreated control, while an efficacy of 100% means that no disease is observed.

[2] = pH 2.7
Alternaria brassicae = test: In vivo preventive test on Alternaria brassicae (leaf spot on radish); conditions: radish plants, preventive spray, 500 ppm of active ingredient, evaluated 6 days after inoculation
Protocol: (§1) The tested active ingredients are prepared by homogenization in a mixture of acetone/Dimethyl sulfoxide/Tween®, and then diluted with water to obtain the desired active material concentration.
The young plants of radish are treated by spraying the active ingredient prepared as described above. Control plants are treated only with an aqueous solution of acetone/Dimethyl sulfoxide/Tween®.
After 24 hours, the plants are contaminated by spraying the leaves with an aqueous suspension of Alternaria brassicae spores. The contaminated radish plants are incubated for 6 days at 20° C. and at 100% relative humidity.
The test is evaluated 6 days after the inoculation. 0% means an efficacy which corresponds to that of the control plants while an efficacy of 100% means that no disease is observed.

Septoria tritici = test: In vivo preventive test on Septoria tritici (leaf spot on wheat); conditions: wheat plants, preventive spray, 500 ppm of active ingredient, evaluated 24 days after inoculation
Protocol: as §1
(§2) The young plants of wheat are treated by spraying the active ingredient prepared as described above. Control plants are treated only with an aqueous solution of acetone/Dimethyl sulfoxide/Tween®.
After 24 hours, the plants are contaminated by spraying the leaves with an aqueous suspension of Septoria tritici spores. The contaminated wheat plants are incubated for 72 hours at 18° C. and at 100% relative humidity and then for 21 days at 20° C. and at 90% relative humidity.
The test is evaluated 24 days after the inoculation. 0% means an efficacy which corresponds to that of the control plants while an efficacy of 100% means that no disease is observed.

Pyrenophora teres = test: In vivo preventive test on Pyrenophora teres (net blotch on barley); conditions: barley plants, preventive spray, 500 ppm of active ingredient, evaluated 14 days after inoculation
Protocol: as §1
The young plants of barley are treated by spraying the active ingredient prepared as described above. Control plants are treated only with an aqueous solution of acetone/Dimethyl sulfoxide/Tween®.
After 24 hours, the plants are contaminated by spraying the leaves with an aqueous suspension of Pyrenophora teres spores. The contaminated barley plants are incubated for 48 hours at 20° C. and at 100% relative humidity and then for 12 days at 20° C. and at 70-80% relative humidity.
The test is evaluated 14 days after the inoculation. 0% means an efficacy which corresponds to that of the control plants while an efficacy of 100% means that no disease is observed.

Uromyces appendiculatus = test: In vivo preventive test on Uromyces appendiculatus (bean rust); conditions: bean plants, preventive spray, 500 ppm of active ingredient, evaluated 11 days after inoculation
Protocol: as §1
The young plants of bean are treated by spraying the active ingredient prepared as described above. Control plants are treated only with an aqueous solution of acetone/Dimethyl sulfoxide/Tween®.
After 24 hours, the plants are contaminated by spraying the leaves with an aqueous suspension of Uromyces appendiculatus spores. The contaminated bean plants are incubated for 24 hours at 20° C. and at 100% relative humidity and then for 10 days at 20° C. and at 70-80% relative humidity.
(§3) The test is evaluated 11 days after the inoculation. 0% means an efficacy which corresponds to that of the control plants while an efficacy of 100% means that no disease is observed.

Pyricularia oryzae = type: in vivo; conditions: rice plants, preventive spray, 500 ppm of active ingredient, evaluated 6 days after inoculation
Puccinia recondita = test: In vivo preventive test on Puccinia recondita (brown rust on wheat); conditions: wheat plants, preventive spray, 500 ppm of active ingredient, evaluated 11 days after inoculation
Protocol: as §1, §2
After 24 hours, the plants are contaminated by spraying the leaves with an aqueous suspension of Puccinia recondita spores. The contaminated wheat plants are incubated for 24 hours at 20° C. and at 100% relative humidity and then for 10 days at 20° C. and at 70-80% relative humidity.
as §3

Row | SMILES | chromatographic logP [1] | % efficacy (Phytophthora infestans) [%] | LogP [2] | further results
1 | Cn1c(C(=NOCc2cccc(NC(=O)OC(C)(C)C)n2)c2cccnc2)noc1=O [Example 33, tert-butyl {6-[({[(4-methyl-5-oxo-4,5-dihydro-1,2,4-oxadiazol-3-yl)(pyridin-3-yl)methylene]amino}oxy)methyl]pyridin-2-yl}carbamate] | 2.75 | 78 |  | 
2 | Cn1c(C(=NOCc2csc(N)n2)c2ccsc2)noc1=O [Example 23] |  | 98 |  | LogP [1]: 1.35^[a]
3 | C#CCCOC(=O)Nc1cccc(CON=C(c2ccncc2)c2noc(=O)n2C)n1 [Example 45] |  | 100 | 2.21^[a] | % efficacy (Plasmopara viticola): 91%
4 | CCCCCOC(=O)Nc1cccc(CON=C(c2ccncc2)c2noc(=O)n2C)n1 [Example 44] |  | 98 |  | LogP [1]: 3.29^[a]
5 | C#CCCOC(=O)Nc1cccc(CO/N=C(/c2ccccn2)c2nc(=O)on2C)n1 [Example 17, But-3-yn-1-yl {6-[({[(Z)-(2-methyl-5-oxo-2,5-dihydro-1,2,4-oxadiazol-3-yl)(pyridine-2-yl)methylene]amino}oxy)methyl]pyridin-2-yl}carbamate] | 2.1 |  |  | 
6 | Cn1c(C(=NOCc2cccc(NC(=O)OC(C)(C)C)n2)c2ccccn2)noc1=O [Example 13] |  | 98 | 3.17^[a] | % efficacy (Alternaria brassicae): 91%; % efficacy (Septoria tritici): 75%; % efficacy (Pyrenophora teres): 77%
7 | CC(C)(C)OC(=O)Nc1cccc(CON=C(C(N)=NO)c2cccnc2)n1 [Example V-03, tert-butyl {6-[({[2-amino-2-(hydroxyimino)-1-(pyridin-3-yl)ethylidene]amino}oxy)methyl]pyridin-2-yl}carbamate] | 1.81 |  |  | 
8 | CN(O)C(=N)/C(=N\OCc1cccc(NC(=O)OC(C)(C)C)n1)c1ccccn1 [Example VI-01, tert-butyl (6-{[({(1Z)-2-[hydroxy(methyl)amino]-2-imino-1-(pyridin-2-yl)ethylidene}amino)oxy]methyl}pyridin-2-yl)carbamate] | 1.54 |  |  | 
9 | CC(C)(C)OC(=O)Nc1cccc(CON=C(c2cccnc2)c2noc(=O)[nH]2)n1 [Example 32, tert-butyl {6-[({[(5-oxo-4,5-dihydro-1,2,4-oxadiazol-3-yl)(pyridin-3-yl)methylene]amino}oxy)methyl]pyridin-2-yl}carbamate] | 2.59 |  |  | 
10 | Cn1c(C(=NOCc2csc(NC(=O)C3CCc4ccccc4O3)n2)c2ccsc2)noc1=O (stereo not drawn) [Example 69] |  | 75 | 3.62^[a] | % efficacy (Plasmopara viticola): 92%
11 | Cn1c(C(=NOCc2csc(NC(=O)OC(C)(C)C)n2)c2ccsc2)noc1=O [Example 16] |  | 100 | 3.39^[a] | % efficacy (Plasmopara viticola): 99%
12 | CC(Oc1ccccc1)C(=O)Nc1nc(CON=C(c2cccs2)c2noc(=O)n2C)cs1 (stereo not drawn) [Example 80] |  | 100 | 3.42^[a] | % efficacy (Plasmopara viticola): 100%
13 | Cn1oc(=O)nc1/C(=N\OCc1cccc(NC(=O)OC(C)(C)C)n1)c1ccccn1 [Example 22, tert-butyl {6-[({[(Z)-(2-methyl-5-oxo-2,5-dihydro-1,2,4-oxadiazol-3-yl)(pyridine-2-yl)methylene]amino}oxy)methyl]pyridin-2-yl}carbamate] | 2.68 | 99 |  | % efficacy (Uromyces appendiculatus): 100%; % efficacy (Pyricularia oryzae): 75%; % efficacy (Puccinia recondita): 88%
14 | CC(C)(C)OC(=O)Nc1cccc(CO/N=C(\C#N)c2ccccn2)n1 [Example IV-02, tert-butyl {6-[({[(Z)-cyano(pyridin-2-yl)methylene]amino}oxy)methyl]pyridin-2-yl}carbamate] | 3.5 |  |  | 
